Source: patent publication US20090012085A1, “DOSAGE FORMS AND METHODS OF TREATMENT USING A TYROSINE KINASE INHIBITOR” (priority 2005, published 2009)
Like-named read-outs stand apart in the source and are kept apart here.

Experiment: Phase I dose-escalating study, plasma pharmacokinetics in patients with solid tumor
Type: in vivo, human
Conditions: for concentration at 6 h / concentration at 8 h / concentration at 10 h / concentration at 0 h / concentration at 1 h / concentration at 2 h / concentration at 3 h / concentration at 4 h / concentration at 20 h / concentration at 24 h / concentration at 48 h / concentration at 72 h / concentration at 96 h / concentration at 144 h / AUC(0-t) / Cmax / Tmax / half-life: human, plasma; for concentration at 6 h: nominal time 6 h; for concentration at 8 h: nominal time 8 h; for concentration at 10 h: nominal time 10 h; for concentration at 0 h: nominal time 0 h; for concentration at 1 h: nominal time 1 h; for concentration at 2 h: nominal time 2 h; for concentration at 3 h: nominal time 3 h; for concentration at 4 h: nominal time 4 h; for concentration at 20 h: nominal time 20 h; for concentration at 48 h: nominal time 48 h; for concentration at 72 h: nominal time 72 h; for concentration at 96 h: nominal time 96 h; for concentration at 144 h: nominal time 144 h; for AUC(0-t): read-out: AUC(0-24), mean (% CV); for Cmax: read-out: Cmax, mean (% CV); for Tmax: read-out: tmax, mean (% CV); for half-life: read-out: t½, mean (% CV) (converted)
Description: Cmax values, or maximum total plasma concentrations, of a compound of formula 1 can be measured according to techniques well known to those skilled in the art. For example, after a compound of formula 1 has been administered to a mammal, blood samples can be taken at fixed time points over a period of time (e.g. 24 hours) and the serum or plasma concentration of compound of formula 1 can be measured using standard analytical techniques known in the art. In vivo determinations Cmax can then be made by plotting the serum or plasma concentration of compound of formula 1 along the ordinate (y-axis) against time along the abscissa (x-axis).
The maleate salt of compound 1 was administered to human patients with solid tumor malignancies not amenable to conventional therapies in a Phase I dose-escalating multicenter study. The types of tumor malignancies included colorectal carcinoma, renal cell carcinoma, esophageal carcinoma, thymus carcinoma, mastocytosis, lung cancer and multiple endocrine neoplasia type II. Patients were treated in cohorts of 6 with escalating QD (once per day) doses of the maleate salt of compound 1 under fasting conditions. Each study cycle of 5 weeks consisted of 4 weeks of treatment followed by 1 week of rest (4/1 schedule), or continuous dosing without any rest period.
Full pharmacokinetic profiles were collected on Cycle 1 Day 1 (C1D1), Cycle 1 Day 28 (C1D28), and Cycle 2 Day 28 (C2D28). Preliminary pharmacokinetic parameters for the first 44 patients, i.e. the first 7 dosing groups, were estimated using nominal collection times and quality-controlled, non-quality assured bioanalytical data. The dosage amounts in Table 1A and Table 1B are free base equivalent amounts.

[1] = 25 mg QD, 25 mg QD 4/1 (n = 6), read-out: Mean plasma concentration following the last dose on cycle 1 day 28
[2] = 25 mg, 25 mg QD 4/1 (n = 6), read-out: Mean plasma concentration following the last dose on cycle 1 day 28
[3] = 25 mg, 25 mg QD (4/1), C1D1 (n = 6)
[4] = 25 mg, 25 mg QD (4/1), C1D28 (n = 6)
[5] = 25 mg, 25 mg QD (4/1), C2D28 (n = 5)
[6] = 50 mg QD, 50 mg QD 4/1 (n = 5), read-out: Mean plasma concentration following the last dose on cycle 1 day 28
[7] = 50 mg, 50 mg QD 4/1 (n = 5), read-out: Mean plasma concentration following the last dose on cycle 1 day 28
[8] = 50 mg, 50 mg QD (4/1), C1D1 (n = 6)
[9] = 50 mg, 50 mg QD (4/1), C1D28 (n = 5)
[10] = 50 mg, 50 mg QD (4/1), C2D28 (n = 3)
[11] = 100 mg QD, 100 mg QD 4/1 (n = 6), read-out: Mean plasma concentration following the last dose on cycle 1 day 28
[12] = 100 mg QD, 100 mg QD Continuous (n = 4), read-out: Mean plasma concentration following the last dose on cycle 1 day 28
[13] = 100 mg, 100 mg QD 4/1 (n = 6), read-out: Mean plasma concentration following the last dose on cycle 1 day 28
[14] = 100 mg, 100 mg QD (4/1), C1D1 (n = 7)
[15] = 100 mg, 100 mg QD (4/1), C1D28 (n = 6)
[16] = 100 mg, 100 mg QD (4/1), C2D28 (n = 4)
[17] = 100 mg, 100 mg QD (continuous), C1D1 (n = 6)
[18] = 100 mg, 100 mg QD (continuous), C1D28 (n = 6)
[19] = 100 mg, 100 mg QD (continuous), C2D28 (n = 4)
[20] = 100 mg, 100 mg QD Continuous (n = 4), read-out: Mean plasma concentration following the last dose on cycle 1 day 28

Cc1[nH]c(/C=C2\C(=O)Nc3ccc(F)cc32)c(C)c1C(=O)NC[C@H](O)CN1CCOCC1 [compound 1, 5-[(Z)-(5-fluoro-2-oxo-1,2-dihydro-3H-indol-3-ylidene)methyl]-N-[(2S)-2-hydroxy-3-morpholin-4-ylpropyl]-2,4-dimethyl-1H-pyrrole-3-carboxamide]
drug accumulation in plasma from cycle 1 to cycle 2 (100 mg QD continuous, Cmax and AUC0-24 of C1D28 vs C2D28): no drug accumulation
time of the longer elimination phase after dosing (4/1 schedule, after the last dose on Day 28): about 72 hours
change in the overall plasma elimination profile (across the 25- to 250-mg groups): no change
time of absorption after dosing (administered in the fasted state): ≤ 6 h
dose linearity of pharmacokinetics (first 44 patients, 25 to 250 mg): generally dose-linear pharmacokinetics
concentration at 6 h [1]: 50.3 ng/mL
concentration at 8 h [1]: 41.3 ng/mL
concentration at 10 h [1]: 36.8 ng/mL
concentration at 0 h [2]: 22.2 ng/mL
concentration at 1 h [2]: 50.1 ng/mL
concentration at 2 h [2]: 46.7 ng/mL
concentration at 3 h [2]: 47 ng/mL
concentration at 4 h [2]: 58.3 ng/mL
concentration at 20 h [2]: 19.5 ng/mL
concentration at 24 h (25 mg, 25 mg QD 4/1 (n = 6), nominal time 24 h, read-out: Mean plasma concentration following the last dose on cycle 1 day 28): 21.1 ng/mL
concentration at 48 h [2]: 6.24 ng/mL
concentration at 72 h [2]: 2.61 ng/mL
concentration at 96 h [2]: 1.58 ng/mL
concentration at 144 h [2]: 0.63 ng/mL
AUC(0-t) [3]: 547 ng·h/mL
concentration at 24 h (25 mg, 25 mg QD (4/1), C1D1 (n = 6), read-out: C(trough, 24 h), mean (% CV)): 13.8 ng/mL
Cmax [3]: 55.1 ng/mL
Tmax [3]: 2.8 h
half-life [3]: 11.9 h
AUC(0-t) [4]: 809 ng·h/mL
concentration at 24 h (25 mg, 25 mg QD (4/1), C1D28 (n = 6), read-out: C(trough, 24 h), mean (% CV)): 21.1 ng/mL
Cmax [4]: 72.9 ng/mL
Tmax [4]: 2.7 h
half-life [4]: 24.8 h
Cmax [5]: 61.8 ng/mL
Tmax [5]: 3.2 h
half-life [5]: 17.7 h
concentration at 3 h [6]: 85.6 ng/mL
concentration at 6 h [6]: 71.3 ng/mL
concentration at 8 h [6]: 68.6 ng/mL
concentration at 10 h [6]: 59.4 ng/mL
concentration at 0 h [7]: 37.2 ng/mL
concentration at 1 h [7]: 72.3 ng/mL
concentration at 2 h [7]: 84.5 ng/mL
concentration at 4 h [7]: 81.1 ng/mL
concentration at 20 h [7]: 30.5 ng/mL
concentration at 24 h (50 mg, 50 mg QD 4/1 (n = 5), nominal time 24 h, read-out: Mean plasma concentration following the last dose on cycle 1 day 28): 24.3 ng/mL
concentration at 48 h [7]: 25.4 ng/mL
concentration at 72 h [7]: 7.89 ng/mL
concentration at 96 h [7]: 17 ng/mL
concentration at 144 h [7]: 3.27 ng/mL
AUC(0-t) [8]: 888 ng·h/mL
concentration at 24 h (50 mg, 50 mg QD (4/1), C1D1 (n = 6), read-out: C(trough, 24 h), mean (% CV)): 20.8 ng/mL
Cmax [8]: 84.6 ng/mL
Tmax [8]: 2.8 h
half-life [8]: 10.8 h
AUC(0-t) [9]: 1350 ng·h/mL
concentration at 24 h (50 mg, 50 mg QD (4/1), C1D28 (n = 5), read-out: C(trough, 24 h), mean (% CV)): 50.8 ng/mL
Cmax [9]: 126 ng/mL
Tmax [9]: 6.6 h
half-life [9]: 24 h
AUC(0-t) [10]: 1790 ng·h/mL
concentration at 24 h (50 mg, 50 mg QD (4/1), C2D28 (n = 3), read-out: C(trough, 24 h), mean (% CV)): 44.2 ng/mL
Cmax [10]: 173 ng/mL
Tmax [10]: 3.3 h
half-life [10]: 18.9 h
concentration at 3 h [11]: 337 ng/mL
concentration at 4 h [11]: 344 ng/mL
concentration at 6 h [11]: 312 ng/mL
concentration at 8 h [11]: 261 ng/mL
concentration at 10 h [11]: 208 ng/mL
concentration at 3 h [12]: 460 ng/mL
concentration at 4 h [12]: 560 ng/mL
concentration at 6 h [12]: 707 ng/mL
concentration at 8 h [12]: 395 ng/mL
concentration at 10 h [12]: 566 ng/mL
concentration at 0 h [13]: 121 ng/mL
concentration at 1 h [13]: 218 ng/mL
concentration at 2 h [13]: 326 ng/mL
concentration at 20 h [13]: 311 ng/mL
concentration at 24 h (100 mg, 100 mg QD 4/1 (n = 6), nominal time 24 h, read-out: Mean plasma concentration following the last dose on cycle 1 day 28): 111 ng/mL
concentration at 48 h [13]: 60.8 ng/mL
concentration at 72 h [13]: 16.1 ng/mL
concentration at 96 h [13]: 9.96 ng/mL
concentration at 144 h [13]: 2.94 ng/mL
AUC(0-t) [14]: 2480 ng·h/mL
concentration at 24 h (100 mg, 100 mg QD (4/1), C1D1 (n = 7), read-out: C(trough, 24 h), mean (% CV)): 86.8 ng/mL
Cmax [14]: 270 ng/mL
Tmax [14]: 2.6 h
half-life [14]: 12.5 h
AUC(0-t) [15]: 6050 ng·h/mL
concentration at 24 h (100 mg, 100 mg QD (4/1), C1D28 (n = 6), read-out: C(trough, 24 h), mean (% CV)): 111 ng/mL
Cmax [15]: 413 ng/mL
Tmax [15]: 2.7 h
half-life [15]: 22 h
AUC(0-t) [16]: 2800 ng·h/mL
concentration at 24 h (100 mg, 100 mg QD (4/1), C2D28 (n = 4), read-out: C(trough, 24 h), mean (% CV)): 156 ng/mL
Cmax [16]: 181 ng/mL
Tmax [16]: 13.5 h
half-life [16]: 23 h
AUC(0-t) [17]: 1800 ng·h/mL
concentration at 24 h (100 mg, 100 mg QD (continuous), C1D1 (n = 6), read-out: C(trough, 24 h), mean (% CV)): 34.1 ng/mL
Cmax [17]: 171 ng/mL
Tmax [17]: 4.3 h
half-life [17]: 12.9 h
AUC(0-t) [18]: 2990 ng·h/mL
concentration at 24 h (100 mg, 100 mg QD (continuous), C1D28 (n = 6), read-out: C(trough, 24 h), mean (% CV)): 63 ng/mL
Cmax [18]: 255 ng/mL
Tmax [18]: 3.3 h
half-life [18]: 11.4 h
AUC(0-t) [19]: 3230 ng·h/mL
concentration at 24 h (100 mg, 100 mg QD (continuous), C2D28 (n = 4), read-out: C(trough, 24 h), mean (% CV)): 62.8 ng/mL
Cmax [19]: 250 ng/mL
Tmax [19]: 3.7 h
half-life [19]: 13.8 h
concentration at 0 h [20]: 284 ng/mL
concentration at 1 h [20]: 232 ng/mL
concentration at 2 h [20]: 524 ng/mL
concentration at 20 h [20]: 265 ng/mL
concentration at 24 h (100 mg, 100 mg QD Continuous (n = 4), nominal time 24 h, read-out: Mean plasma concentration following the last dose on cycle 1 day 28): 246 ng/mL
